According to the NIST ThermoML archive (doi:10.1016/j.jct.2017.10.014):

Experiments:
[1] = mn = molality of the nth substance listed, in mol/kg; settings: 100 kPa, Liquid, Capillary tube (Ostwald / Ubbelohde) method
[2] = xn = mol fraction of the nth substance listed; settings: 100 kPa, Liquid, Vibrating tube method

CC(C)(CO)[C@@H](O)C(=O)NCCCO [d-Panthenol] + O
Settings | mass density, 293.15 K [kg/m3] | mass density, 298.15 K [kg/m3] | mass density, 303.15 K [kg/m3] | mass density, 308.15 K [kg/m3] | mass density, 313.15 K [kg/m3] | viscosity, 293.15 K [mPa·s] | viscosity, 298.15 K [mPa·s] | viscosity, 303.15 K [mPa·s] | viscosity, 308.15 K [mPa·s] | viscosity, 313.15 K [mPa·s]
[1], m1 = 0.01 | – | – | – | – | – | 1.009 | 0.896 | 0.803 | 0.724 | 0.657
[1], m1 = 0.05 | – | – | – | – | – | 1.039 | 0.923 | 0.826 | 0.744 | 0.675
[1], m1 = 0.1001 | – | – | – | – | – | 1.078 | 0.957 | 0.855 | 0.769 | 0.697
[1], m1 = 0.1989 | – | – | – | – | – | 1.159 | 1.027 | 0.917 | 0.822 | 0.743
[1], m1 = 0.3002 | – | – | – | – | – | 1.246 | 1.1 | 0.98 | 0.877 | 0.791
[1], m1 = 0.4006 | – | – | – | – | – | 1.334 | 1.173 | 1.045 | 0.932 | 0.839
[1], m1 = 0.4997 | – | – | – | – | – | 1.421 | 1.253 | 1.105 | 0.99 | 0.887
[2], x1 = 0.0036 | 1004.95 | 1003.69 | 1002.18 | 1000.46 | 998.5 | – | – | – | – | –
[2], x1 = 0.0054 | 1008.18 | 1006.88 | 1005.33 | 1003.56 | 1001.53 | – | – | – | – | –
[2], x1 = 0.0071 | 1011.3 | 1009.95 | 1008.35 | 1006.55 | 1004.49 | – | – | – | – | –
[2], x1 = 0.0089 | 1014.36 | 1012.97 | 1011.34 | 1009.5 | 1007.4 | – | – | – | – | –
[2], x1 = 0.0107 | 1017.42 | 1016 | 1014.32 | 1012.45 | 1010.32 | – | – | – | – | –
[2], x1 = 0.0124 | 1020.22 | 1018.76 | 1017.07 | 1015.14 | 1012.99 | – | – | – | – | –
[2], x1 = 0.0142 | 1023.06 | 1021.57 | 1019.84 | 1017.89 | 1015.72 | – | – | – | – | –
[2], x1 = 0.0248 | 1039.61 | 1037.84 | 1035.87 | 1033.67 | 1031.28 | – | – | – | – | –
[2], x1 = 0.031 | 1049.02 | 1046.69 | 1044.71 | 1042.43 | 1039.83 | – | – | – | – | –
[2], x1 = 0.0376 | 1055.92 | 1053.81 | 1051.55 | 1049.07 | 1046.45 | – | – | – | – | –
[2], x1 = 0.0501 | 1068.98 | 1066.6 | 1064.45 | 1062.19 | 1059.96 | – | – | – | – | –
[2], x1 = 0.0996 | 1102.82 | 1099.84 | 1096.7 | 1093.45 | 1090.55 | – | – | – | – | –
[2], x1 = 0.1997 | 1134.36 | 1130.9 | 1127.26 | 1123.64 | 1119.93 | – | – | – | – | –
[2], x1 = 0.2495 | 1141.94 | 1138.2 | 1134.68 | 1130.9 | 1127.21 | – | – | – | – | –
[2], x1 = 0.2871 | 1146.56 | 1142.9 | 1139.2 | 1135.41 | 1131.52 | – | – | – | – | –
[2], x1 = 0.342 | 1151.05 | 1147.23 | 1143.4 | 1139.69 | 1135.87 | – | – | – | – | –
[2], x1 = 0.4007 | 1154.55 | 1150.87 | 1146.9 | 1143.02 | 1139.25 | – | – | – | – | –
[2], x1 = 0.4958 | 1158.52 | 1154.87 | 1151.08 | 1147.04 | 1143.29 | – | – | – | – | –
[2], x1 = 0.5944 | 1160.64 | 1157.16 | 1153.51 | 1149.72 | 1145.77 | – | – | – | – | –
[2], x1 = 0.708 | 1162.75 | 1159.25 | 1155.76 | 1152.16 | 1148.24 | – | – | – | – | –
[2], x1 = 0.8067 | 1163.58 | 1160.22 | 1156.74 | 1153.27 | 1149.57 | – | – | – | – | –
[2], x1 = 0.8753 | 1164.26 | 1160.86 | 1157.46 | 1153.96 | 1150.3 | – | – | – | – | –
[2], x1 = 1 | 1165.18 | 1161.68 | 1158.27 | 1154.96 | 1151.46 | – | – | – | – | –
